# Source: BindingDB's records for patent US10202381 (Celgene Quanticel Research Inc, 2019)
# Target: T1, Lysine-specific demethylase 4C (Homo sapiens, UniProt Q9H3R0)
# T1 sequence (Q9H3R0 whole entry): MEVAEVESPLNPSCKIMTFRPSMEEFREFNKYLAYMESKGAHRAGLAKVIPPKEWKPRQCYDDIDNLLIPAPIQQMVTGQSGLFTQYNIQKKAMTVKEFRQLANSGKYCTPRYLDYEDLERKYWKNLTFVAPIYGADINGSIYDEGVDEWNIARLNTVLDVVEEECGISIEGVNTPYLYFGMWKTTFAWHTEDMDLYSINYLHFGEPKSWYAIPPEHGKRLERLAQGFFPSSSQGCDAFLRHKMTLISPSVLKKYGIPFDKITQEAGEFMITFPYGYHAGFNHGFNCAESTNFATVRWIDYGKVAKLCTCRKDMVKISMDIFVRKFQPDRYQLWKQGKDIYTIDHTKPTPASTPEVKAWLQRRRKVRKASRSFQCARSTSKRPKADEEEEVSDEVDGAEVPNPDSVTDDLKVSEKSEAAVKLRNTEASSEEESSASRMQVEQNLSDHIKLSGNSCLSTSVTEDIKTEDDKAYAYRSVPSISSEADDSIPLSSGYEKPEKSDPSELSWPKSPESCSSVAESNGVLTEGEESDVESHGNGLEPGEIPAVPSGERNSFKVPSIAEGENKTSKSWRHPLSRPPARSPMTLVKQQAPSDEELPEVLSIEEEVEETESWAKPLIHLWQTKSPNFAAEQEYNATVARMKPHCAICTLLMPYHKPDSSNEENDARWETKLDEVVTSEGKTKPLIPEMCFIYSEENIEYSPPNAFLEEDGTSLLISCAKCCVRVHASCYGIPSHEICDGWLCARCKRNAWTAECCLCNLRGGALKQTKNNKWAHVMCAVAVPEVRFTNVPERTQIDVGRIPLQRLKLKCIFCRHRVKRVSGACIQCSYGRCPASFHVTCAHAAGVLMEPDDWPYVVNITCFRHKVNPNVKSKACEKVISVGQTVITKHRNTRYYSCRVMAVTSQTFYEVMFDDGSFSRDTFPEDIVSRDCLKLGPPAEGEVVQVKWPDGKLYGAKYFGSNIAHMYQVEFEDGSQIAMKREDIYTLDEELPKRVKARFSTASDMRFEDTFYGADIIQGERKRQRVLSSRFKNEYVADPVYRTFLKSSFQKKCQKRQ
# Experiment: JMJD2C Assay
# Procedure: The ability of test compounds to inhibit the activity of JMJD2C was determined in 384-well plate-format under the following reaction conditions: 0.3 nM JMJD2C, 300 nM H3K9me3-biotin labeled peptide (Anaspec cat #64360), 2 μM alpha-ketoglutaric acid in assay buffer of 50 mM HEPES, pH 7.3, 0.005% Brij35, 0.5 mM TCEP, 0.2 mg/ml BSA, 50 μM sodium L-ascorbate, and 2 μM ammonium iron(II) sulfate. Reaction product was determined quantitatively by TR-FRET after the addition of detection reagent Phycolink Streptavidin-allophycocyanin (Prozyme) and Europium-anti-di-methylated histone H3 lysine 9 (H3K9me2) antibody (PerkinElmer) in the presence of 5 mM EDTA in LANCE detection buffer (PerkinElmer) at a final concentration of 50 nM and 1 nM, respectively.The assay reaction was initiated by the following: 2 μl of the mixture of 900 nM H3K9me3-biotin labeled peptide and 6 μM alpha-ketoglutaric acid with 2 μl of 11-point serial diluted inhibitor in 3% DMSO were added to each well of the plate, followed by the addition of 2 μl of 0.9 nM JMJD2C to initiate the reaction. […] Plates were read by EnVisionMultilabel Reader in TR-FRET mode (excitation at 320 nm, emission at 615 nm and 665 nm) after 1 hr incubation at room temperature. A ratio was calculated (665/615) for each well and fitted to determine inhibition constant (IC50).
row,IC50,SMILES
1,< 100 nM,"Cc1cc(Oc2nc(O)c3ccncc3n2)ccc1N(C)c1cc(N2CCN(C)CC2)ccc1C [US10202381, Example 147]"
2,< 100 nM,"COc1ccc(N2CCN(C)CC2)cc1N(C)c1ccc(Oc2nc(O)c3ccncc3n2)cc1C [US10202381, Example 145]"
